How the values were obtained:
[1] = tested on: paw edema; assay: Anti-inflammatory activity (% inhibition in paw edema); type: in vivo; conditions: dose 40 mg/kg p.o.; albino rats
Description: (§1) Solvents were dried and distilled before use. Dimethyltin(IV) dichloride di-n-butyltin(IV) dichloride, diphenyltin(IV) dichloride, trimethyltin(IV) chloride, tri-i-propyltin(IV) chloride, tri-n-butyltin(IV) chloride, triphenyltin(IV) chloride (E. Merck), di-n-octyltin(IV) oxide (Aldrich), and disodium salt of 5′-guanosine monophosphate (Na2(5′-GMP) (Sigma) were used as received. The elemental analysis, namely, melting points, carbon, hydrogen, nitrogen, and tin of the synthesized compounds was determined on the same instruments as reported earlier. Infrared and far-infrared spectra were recorded on a Perkin-Elmer 1600 series FT IR spectrophotometer in the range 4000–400 cm^−1 from KBr discs and 600–200 cm^−1 from CsI discs. ^1H and ^13C spectra were recorded on a Bruker DRX 300 (300 MHz FT NMR) spectrometer at the Central Drug Research Institute, Lucknow, India, using CD3OD as solvent and TMS as the internal standard. ^119Sn NMR spectra were recorded on a Bruker DRX 500 (500 MHz FT NMR) spectrometer at the Institute Instrumentation Centre, IIT, Roorkee, India, using DMSO-d6/CD3OD as solvent and TMS as the internal standard. ^119Sn Mössbauer spectra were recorded on Mössbauer spectrometer model MS-900 according to the procedure reported previously at the Department of Chemistry and Physics, University of The District of Columbia, Washington, DC, USA [21, 22]. Toxicity (LD50: average lethal dose at 50% survival) and anti-inflammatory activity of the studied derivatives were determined according to the procedures reported earlier.

[2] = tested on: albino rats; type: in vivo; conditions: p.o.
Description: as §1

[3] = Solubility in organic solvents (observation); type: physicochemical; conditions: for Solubility in DMSO-d6/CDCl3/CD3OD: NMR solvents DMSO-d6/CDCl3/CD3OD
Description: All of the synthesized compounds are obtained as white or cream solid in 65–81% yield and stable towards air and moisture. They are insoluble in common organic solvents but sparingly soluble in DMSO. They decomposed at high temperature instead of melting, which indicates their polymeric nature. […] In the entire studied derivatives one molecule of water is also involved.
The chemical shifts of various magnetically nonequivalent carbons of (5′-GMP)^2− have been assigned in the studied derivatives. The C-5′ resonances in organotin(IV) derivatives of (5′-GMP)^2− are shifted towards downfield upon complexation as compared with that of ligand, which indicate the involvement of phosphate group (PO3)^2− in bonding with tin. While all other carbon shifts remains almost unchanged, the ^13C chemical shifts of alkyl and phenyl groups attached to tin are also observed in the expected regions which are consistent with previously reported values. The characteristic resonances in the ^119Sn NMR spectra of some of the studied derivatives, recorded in dimethylsulfoxide-d 6, are also presented in Table 2. […] The ^119Sn chemical shifts in iso-Pr3Sn(IV), Ph2Sn(IV), and Ph3Sn(IV) derivatives of (5′-GMP)^2− are observed at δ −256, −225, and −226 ppm, which are characteristic of the five-coordinated organotin(IV) derivatives.

Molecule	Anti-inflammatory activity % inhibition (paw edema) [1] [%]	Toxicity LD50 [2] [mg/kg]	Solubility in DMSO-d6 [3]	Solubility in DMSO-d6/CDCl3/CD3OD [3]
[(Ph3Sn)2(5′-GMP)·H2O]n	20.63	>400	–	–
[(Me3Sn)2(5′-GMP)·H2O]n	–	–	poor solubility	extremely low solubility
[Ph2Sn(5′-GMP)·H2O]n	19.22	>400	–	–
[Me2Sn(5′-GMP)·H2O]n	18.12	>400	poor solubility	–
[(i-Pr3Sn)2(5′-GMP)·H2O]n	–	>400	–	–
[n-Bu2Sn(5′-GMP)·H2O]n	16.32	>400	poor solubility	extremely low solubility
[(n-Bu3Sn)2(5′-GMP)·H2O]n	17.34	>400	poor solubility	–
CCCCC1C(=O)N(c2ccccc2)N(c2ccccc2)C1=O [Phenyl butazone, reference compound]	34.56	–	–	–

Reference: article PMC3767334, “Interaction of 5′-Guanosine Monophosphate with Organotin(IV) Moieties: Synthesis, Structural Characterization, and Anti-Inflammatory Activity” (ISRN Organic Chemistry, 2012)
